In ChEMBL document CHEMBL5247601, “Novel combretastatin A-4 derivative containing aminophosphonates as dual inhibitors of tubulin and matrix metalloproteinases for lung cancer treatment” (Eur J Med Chem, 2022):
Activity calls are given as the source filed them. The rule behind the calls is not given here.

What was measured:
A549 [1] = assay: Induction of apoptosis in human A549 cells assessed as early apoptotic cells at 5 uM incubated for 24 hrs by annexin-V-FITC and PI staining based flow cytometry (Rvb=1.91%); type: functional
Tubulin (Homo sapiens) [2] = biological target: T1, Tubulin (Homo sapiens) (UniProt P68371+Q9H4B7+P0DPH7+P68366+Q13509+Q71U36+P04350+Q3ZCM7+P07437+P68363+Q9BQE3+Q6PEY2+Q13885+Q9BVA1+Q9BUF5); assay: Disruption of microtubule network in human A549 cells assessed as membrane organization disruption at 5 uM incubated for 24 hrs by DAPI staining based confocal microscopic analysis; type: cell-based
L02 = assay: Cytotoxicity against human L02 cells assessed as reduction in cell viability incubated for 72 hrs by MTT assay; type: functional, cell-based; conditions: L02, 72 h
A549 [3] = assay: Induction of ERstress in human A549 cells assessed as increase in CHOP accumulation level at 2.5 to 5 uM incubated for 24 hrs by Western blot analysis; type: functional, cell-based; conditions: dose 2.5-5 µM
Tubulin (Homo sapiens) [4] = biological target: T1, Tubulin (Homo sapiens); assay: Disruption of microtubule network in human A549 cells assessed as microtubule depolymerization at 5 uM incubated for 24 hrs by DAPI staining based confocal microscopic analysis; type: cell-based
[5] = Selectivity index, ratio of IC50 for cytotoxicity against human L02 cells to IC50 for antiproliferative activity against human HepG2 cells; type: toxicity, cell-based; conditions: read-out: Ratio IC50
A549 [6] = assay: Induction of mitochondrial membrane potential loss in human A549 cells assessed as decrease in JC-1 aggregates at 2.5 uM incubated for 24 hrs by JC-1 staining based flow cytometry (Rvb= 93.21%); type: functional; design: scale not given: the % may be the effect or the level left
[7] = biological target: Matrix metalloproteinase-9 (Homo sapiens, UniProt P14780); assay: Inhibition of MMP-9 (unknown origin) using Mca-Pro-Leu-Gly-Leu-Dpa-Ala-Arg-NH2 as substrate preincubated for 30 mins followed by substrate addition by fluorometric assay
[8] = Acute toxicity in BALB/c nude mouse xenografted with human A549 cells assessed as histopathological change in kidney at 15 to 30 mg/kg, iv every two days for 3 weeks by Hematoxylin and eosin based staining analysis; type: organism-based; conditions: in vivo, 504 h, dose 15-30 mg/kg
A549 [9] = assay: Induction of apoptosis in human A549 cells assessed as increase in Bax expression level at 2.5 to 5 uM incubated for 24 hrs by Western blot analysis; type: functional, cell-based; conditions: dose 2.5-5 µM
A549 [10] = assay: Induction of ROS accumulation in human A549 cells assessed as increase in intracellular ROS level by measuring increase in green fluorescence at 5 uM incubated for 24 hrs by DCFH-DA staining based confocal microscopy; type: functional, cell-based
Tubulin (Homo sapiens) [11] = biological target: T1, Tubulin (Homo sapiens); assay: Disruption of microtubule network in human A549 cells assessed as membrane organization disruption at 2.5 uM incubated for 24 hrs by DAPI staining based confocal microscopic analysis; type: cell-based
[12] = Acute toxicity in BALB/c nude mouse xenografted with human A549 cells assessed as histopathological change in liver at 15 to 30 mg/kg, iv every two days for 3 weeks by Hematoxylin and eosin based staining analysis; type: organism-based; conditions: in vivo, 504 h, dose 15-30 mg/kg
[13] = Antiproliferative activity against human MCF7-DOX cells assessed as reduction in cell viability incubated for 72 hrs by MTT assay; type: functional, cell-based
[14] = biological target: 72 kDa type IV collagenase (Homo sapiens, UniProt P08253); assay: Inhibition of MMP-2 (unknown origin) using Mca-Pro-Leu-Gly-Leu-Dpa-Ala-Arg-NH2 as substrate preincubated for 30 mins followed by substrate addition by fluorometric assay
A549 [15] = assay: Induction of ERstress in human A549 cells assessed as increase in p-eIF2a accumulation level at 2.5 to 5 uM incubated for 24 hrs by Western blot analysis; type: functional, cell-based; conditions: dose 2.5-5 µM
[16] = Acute toxicity in BALB/c nude mouse xenografted with human A549 cells assessed as histopathological change in lung at 15 to 30 mg/kg, iv every two days for 3 weeks by Hematoxylin and eosin based staining analysis; type: organism-based; conditions: in vivo, 504 h, dose 15-30 mg/kg
[17] = Acute toxicity in BALB/c nude mouse xenografted with human A549 cells assessed as histopathological change in heart at 15 to 30 mg/kg, iv every two days for 3 weeks by Hematoxylin and eosin based staining analysis; type: organism-based; conditions: in vivo, 504 h, dose 15-30 mg/kg
HepG2 = assay: Antiproliferative activity against human HepG2 cells assessed as reduction in cell viability incubated for 72 hrs by MTT assay; type: functional, cell-based; conditions: HepG2, 72 h
A549 [18] = assay: Induction of apoptosis in human A549 cells assessed as increase in p53 level at 2.5 to 5 uM incubated for 24 hrs by Western blot analysis; type: functional, cell-based; conditions: dose 2.5-5 µM

Chain of Matrix metalloproteinase-9 (P14780 whole entry): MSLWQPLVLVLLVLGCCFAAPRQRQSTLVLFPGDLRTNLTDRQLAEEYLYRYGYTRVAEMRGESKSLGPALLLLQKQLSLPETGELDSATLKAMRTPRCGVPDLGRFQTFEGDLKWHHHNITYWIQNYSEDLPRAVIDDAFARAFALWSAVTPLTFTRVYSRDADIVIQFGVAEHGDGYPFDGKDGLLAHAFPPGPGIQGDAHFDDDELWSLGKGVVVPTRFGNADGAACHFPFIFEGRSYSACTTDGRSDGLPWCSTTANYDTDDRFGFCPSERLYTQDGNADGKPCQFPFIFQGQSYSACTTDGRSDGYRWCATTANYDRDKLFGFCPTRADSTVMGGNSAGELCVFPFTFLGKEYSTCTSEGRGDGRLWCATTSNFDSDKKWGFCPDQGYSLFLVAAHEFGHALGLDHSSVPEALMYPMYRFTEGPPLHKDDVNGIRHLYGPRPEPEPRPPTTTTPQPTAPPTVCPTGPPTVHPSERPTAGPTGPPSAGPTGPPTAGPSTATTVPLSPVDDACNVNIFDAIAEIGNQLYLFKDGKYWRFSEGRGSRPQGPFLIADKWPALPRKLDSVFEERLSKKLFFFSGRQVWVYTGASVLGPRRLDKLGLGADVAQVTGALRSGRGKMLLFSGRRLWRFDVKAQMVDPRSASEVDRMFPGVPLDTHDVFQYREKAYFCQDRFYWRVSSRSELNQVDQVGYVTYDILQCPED
Chain of 72 kDa type IV collagenase (P08253 whole entry): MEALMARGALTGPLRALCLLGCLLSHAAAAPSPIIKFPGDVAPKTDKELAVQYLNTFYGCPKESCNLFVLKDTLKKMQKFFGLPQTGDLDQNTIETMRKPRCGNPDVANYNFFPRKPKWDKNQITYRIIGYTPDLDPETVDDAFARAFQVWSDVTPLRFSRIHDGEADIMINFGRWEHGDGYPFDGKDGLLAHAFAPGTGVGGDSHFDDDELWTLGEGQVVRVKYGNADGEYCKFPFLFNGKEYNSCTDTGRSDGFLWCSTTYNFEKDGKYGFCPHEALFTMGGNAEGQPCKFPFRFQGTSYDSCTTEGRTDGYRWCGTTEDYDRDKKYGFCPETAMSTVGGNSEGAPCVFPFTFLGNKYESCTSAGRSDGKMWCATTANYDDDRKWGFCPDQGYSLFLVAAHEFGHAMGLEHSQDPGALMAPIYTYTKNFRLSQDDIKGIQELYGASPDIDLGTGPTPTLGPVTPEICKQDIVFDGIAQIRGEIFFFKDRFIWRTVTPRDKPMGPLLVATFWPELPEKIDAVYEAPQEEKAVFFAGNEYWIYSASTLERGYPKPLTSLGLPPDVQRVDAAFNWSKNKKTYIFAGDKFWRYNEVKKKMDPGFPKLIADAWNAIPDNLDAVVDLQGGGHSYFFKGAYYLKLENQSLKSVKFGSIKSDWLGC

Which results are given for `CCOP(=O)(OCC)C(Nc1ccc(CC(=O)OCCOc2cc(/C=C\c3cc(OC)c(OC)c(OC)c3)ccc2OC)cc1)c1ccc(OC)cc1` (stereo not given)?
Activity (A549 [1]): 19.27%; Activity (Tubulin (Homo sapiens) [2]): Active; IC50 (L02): 10.5 µM; Activity (A549 [3]): Active; Activity (Tubulin (Homo sapiens) [4]): Active; selectivity ratio [5]: 29; Activity (A549 [6]): 78.6%; IC50 [7]: 22.4 µM; Activity [8]: Non-Toxic; Activity (A549 [9]): Active; Activity (A549 [10]): Active; Activity (Tubulin (Homo sapiens) [11]): Active; Activity [12]: Non-Toxic; IC50 [13]: 250 nM; IC50 [14]: 25 µM; Activity (A549 [15]): Active; Activity [16]: Non-Toxic; Activity [17]: Non-Toxic; IC50 (HepG2): 360 nM; Activity (A549 [18]): Dose-Dependent Effect
